Data on four compounds can be found in patent publication US12077503B2, “Substituted cyclic amides and their use as herbicides” (FMC CORPORATION, priority 2015, dated 2024).

Format in all cases: in vivo
The subject of assay [1] is Kochia (Kochia scoparia). Briefly: Test A preemergence. The conditions noted are these: Bassia scoparia, pre-emergence, 240 h; for pest or weed control at 125 g/ha: 125 g ai/ha, preemergence, 0 to 100 scale where 0 is no effect and 100 is complete control, read-out: Kochia plant response rating; for pest or weed control at 500 g/ha: 500 g ai/ha, Preemergence, visual injury vs untreated controls after approximately 10 d, read-out: Kochia plant response rating (0 to 100 scale where 0 is no effect and 100 is complete control). The procedure, abridged:
(§1)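 Preemergence soil spray on seeded pots or post-emergence spray on 1–2 leaf plants, in loam–sand blend. Greenhouse ~10 d. Visual rating 0–100 against untreated plants.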

Assay [2] concerns barnyardgrass (Echinochloa crus-galli). Kind of assay: Test A preemergence. The note with it: Echinochloa crus-galli, pre-emergence, 240 h; for pest or weed control at 125 g/ha: 125 g ai/ha, preemergence, 0 to 100 scale where 0 is no effect and 100 is complete control, read-out: Barnyardgrass plant response rating; for pest or weed control at 500 g/ha: 500 g ai/ha, Preemergence, visual injury vs untreated controls after approximately 10 d, read-out: Barnyardgrass plant response rating (0 to 100 scale where 0 is no effect and 100 is complete control). The method in brief:
as §1

The test system of assay [3] is giant foxtail (Setaria faberii). Kind of assay: Test A preemergence. The conditions noted are these: Setaria faberi, pre-emergence, 240 h; for pest or weed control at 125 g/ha: 125 g ai/ha, preemergence, 0 to 100 scale where 0 is no effect and 100 is complete control, read-out: Foxtail, Giant plant response rating; for pest or weed control at 500 g/ha: 500 g ai/ha, Preemergence, visual injury vs untreated controls after approximately 10 d, read-out: Foxtail, Giant plant response rating (0 to 100 scale where 0 is no effect and 100 is complete control). The procedure, abridged: as §1

For assay [4], the system named is pigweed (Amaranthus retroflexus). Briefly: Test A preemergence. The note with it: Amaranthus retroflexus, pre-emergence, 240 h; for pest or weed control at 125 g/ha: 125 g ai/ha, preemergence, 0 to 100 scale where 0 is no effect and 100 is complete control, read-out: Pigweed plant response rating; for pest or weed control at 500 g/ha: 500 g ai/ha, Preemergence, visual injury vs untreated controls after approximately 10 d, read-out: Pigweed plant response rating (0 to 100 scale where 0 is no effect and 100 is complete control).

For assay [5], the system named is ragweed (common ragweed, Ambrosia elatior). Kind of assay: Test A preemergence. The conditions noted are these: Ambrosia artemisiifolia, pre-emergence, 240 h; for pest or weed control at 125 g/ha: 125 g ai/ha, preemergence, 0 to 100 scale where 0 is no effect and 100 is complete control, read-out: Ragweed plant response rating; for pest or weed control at 500 g/ha: 500 g ai/ha, Preemergence, visual injury vs untreated controls after approximately 10 d, read-out: Ragweed plant response rating (0 to 100 scale where 0 is no effect and 100 is complete control). The procedure, abridged: as §1

In assay [6] the test system is ryegrass, Italian (Italian ryegrass, Lolium multiflorum). Briefly: Test A preemergence. The note with it: Lolium multiflorum, pre-emergence, 240 h; for pest or weed control at 125 g/ha: 125 g ai/ha, preemergence, 0 to 100 scale where 0 is no effect and 100 is complete control, read-out: Ryegrass, Italian plant response rating; for pest or weed control at 500 g/ha: 500 g ai/ha, Preemergence, visual injury vs untreated controls after approximately 10 d, read-out: Ryegrass, Italian plant response rating (0 to 100 scale where 0 is no effect and 100 is complete control). The procedure, abridged: as §1

For assay [7], the system named is Galium (catchweed bedstraw, Galium aparine). Kind of assay: Test A postemergence. The conditions noted are these: Galium, post-emergence, 240 h, 125 g ai/ha, postemergence, visual injury rating after approximately 10 d; read-out: Galium plant response rating (0 to 100 scale, 0 no effect, 100 complete control). The procedure, abridged:
as §1

Assay [8] relates to Kochia (Kochia scoparia). Kind of assay: Test A postemergence. The conditions noted are these: Bassia scoparia, post-emergence, 240 h, 125 g ai/ha, postemergence, visual injury rating after approximately 10 d; read-out: Kochia plant response rating (0 to 100 scale, 0 no effect, 100 complete control). The procedure, abridged:
as §1

The test system of assay [9] is barnyardgrass (Echinochloa crus-galli). Briefly: Test A postemergence. The conditions noted are these: Echinochloa crus-galli, post-emergence, 240 h, 125 g ai/ha, postemergence, visual injury rating after approximately 10 d; read-out: Barnyardgrass plant response rating (0 to 100 scale, 0 no effect, 100 complete control). The procedure, abridged: as §1
The test system of assay [10] is blackgrass (Alopecurus myosuroides). Kind of assay: Test A postemergence. The conditions noted are these: Alopecurus myosuroides, post-emergence, 240 h, 125 g ai/ha, postemergence, visual injury rating after approximately 10 d; read-out: Blackgrass plant response rating (0 to 100 scale, 0 no effect, 100 complete control). The procedure, abridged:
as §1

For assay [11], the system named is corn (Zea mays). Briefly: Test A postemergence. The conditions noted are these: Zea mays, post-emergence, 240 h, 125 g ai/ha, postemergence, visual injury rating after approximately 10 d; read-out: Corn plant response rating (0 to 100 scale, 0 no effect, 100 complete control). The procedure, abridged:
as §1

Assay [12] has as its system giant foxtail (Setaria faberii). Kind of assay: Test A postemergence. The conditions noted are these: Setaria faberi, post-emergence, 240 h, 125 g ai/ha, postemergence, visual injury rating after approximately 10 d; read-out: Foxtail, Giant plant response rating (0 to 100 scale, 0 no effect, 100 complete control). The method in brief:
as §1

Assay [13] relates to pigweed (Amaranthus retroflexus). Kind of assay: Test A postemergence. The note with it: Amaranthus retroflexus, post-emergence, 240 h, 125 g ai/ha, postemergence, visual injury rating after approximately 10 d; read-out: Pigweed plant response rating (0 to 100 scale, 0 no effect, 100 complete control). The procedure, abridged:
as §1

Assay [14] has as its system ragweed (common ragweed, Ambrosia elatior). Briefly: Test A postemergence. The conditions noted are these: Ambrosia artemisiifolia, post-emergence, 240 h, 125 g ai/ha, postemergence, visual injury rating after approximately 10 d; read-out: Ragweed plant response rating (0 to 100 scale, 0 no effect, 100 complete control). The method in brief: as §1
Assay [15] relates to ryegrass, Italian (Italian ryegrass, Lolium multiflorum). Kind of assay: Test A postemergence. The note with it: Lolium multiflorum, post-emergence, 240 h, 125 g ai/ha, postemergence, visual injury rating after approximately 10 d; read-out: Ryegrass, Italian plant response rating (0 to 100 scale, 0 no effect, 100 complete control). The procedure, abridged: as §1
For assay [16], the system named is wheat (Triticum aestivum). Kind of assay: Test A postemergence. The note with it: Triticum aestivum, post-emergence, 240 h, 125 g ai/ha, postemergence, visual injury rating after approximately 10 d; read-out: Wheat plant response rating (0 to 100 scale, 0 no effect, 100 complete control). The procedure, abridged: as §1

Structures are written as SMILES.

Take `COc1c(F)ccc([C@H]2CN(C)C(=O)[C@@H]2C(=O)Nc2cccc(F)c2F)c1Cl` [Compound 893]: the pest or weed control at 125 g/ha is 80% in assay [1]; 90% in assay [2]; 90% in assay [3]; 30% in assay [4]; 40% in [5]; 40% in assay [6]. In addition, the pest or weed control at 125 g/ha is 50% in [7]; 60% in [8]; 100% in [9]; 30% in assay [10]; 90% in assay [12]; 20% in assay [13]. The pest or weed control at 125 g/ha in assay [14] came to 30%; in assay [15] it was 60%. Also, the pest or weed control at 500 g/ha in [1] came to 90%; in [2] it was 100%; in [3], 90%; in assay [4] it was 50%; in assay [5] it was 70%; in [6] it was 90%. The plant injury at 125 g/ha in assay [11] stood at 80%; in assay [16], 30%.

In the case of `COc1c(F)ccc([C@H]2CN(C)C(=O)[C@@H]2C(=O)Nc2ccc(F)cc2F)c1Cl` [Compound 894], the pest or weed control at 125 g/ha in assay [1] amounted to 60%; in assay [2], 90%; in [3] it was 90%; in assay [4], 20%; in assay [5] it was 0%; in [6], 50%. For the same compound, the pest or weed control at 125 g/ha was found to be 40% in [7]; 50% in assay [8]; 90% in assay [9]; 0% in assay [10]; 90% in assay [12]; 0% in assay [13]. For the same compound, the pest or weed control at 125 g/ha is 0% in assay [14] and 50% in assay [15]. The pest or weed control at 500 g/ha in [1] worked out at 90%; in assay [2] it was 100%; in assay [3], 100%; in assay [4] it was 50%; in [5] it was 40%; in [6], 60%. The plant injury at 125 g/ha in assay [11] is 60%; in assay [16], 20%.

In the case of `CN1C[C@H](c2cc(F)c(C(F)(F)F)c(F)c2)[C@@H](C(=O)Nc2cccc(F)c2F)C1=O` [Compound 898], the pest or weed control at 125 g/ha was found to be 70% in [1]; 90% in [2]; 90% in assay [3]; 60% in [4]; 60% in assay [5]; 40% in [6]. In addition, the pest or weed control at 125 g/ha in assay [7] was determined as 0%; in assay [8], 0%; in assay [9], 80%; in [10], 50%; in assay [12] it was 80%; in [13] it was 40%. Further, the pest or weed control at 125 g/ha in [14] turned out to be 0%; in assay [15], 50%. Moreover, the pest or weed control at 500 g/ha in [1] turned out to be 90%; in assay [2] it was 90%; in [3], 90%; in assay [4] it was 80%; in assay [5] it was 60%; in assay [6] it was 70%. Further, the plant injury at 125 g/ha in assay [11] is 70%; in assay [16] it was 40%.

Consider `O=C1NC[C@H](c2ccc3c(c2)CCO3)[C@H]1C(=O)Nc1ccc(F)cc1F` [Compound 902], for which the pest or weed control at 125 g/ha is 0% in assay [1]; 40% in assay [2]; 30% in [3]; 0% in assay [4]; 0% in assay [5]; 0% in [6]. For the same compound, the pest or weed control at 125 g/ha is 0% in assay [7]; 0% in assay [8]; 60% in assay [9]; 0% in [10]; 30% in [12]; 0% in assay [13]. Besides, the pest or weed control at 125 g/ha in assay [14] and in [15] was 0% in each case. For the same compound, the pest or weed control at 500 g/ha in assay [1] was 0%; in assay [2], 90%; in assay [3] it was 90%; in assay [4], 0%; in assay [5] it was 0%; in assay [6], 20%. Further, the plant injury at 125 g/ha in assay [11] and in [16] was 0% throughout.
